Our source for the IC50 values is patent publication US12011444B2, “N-substituted indole derivatives as PGE2 receptor modulators” (Idorsia Pharmaceuticals Ltd, priority 2015, dated 2024).

Molecules are shown by their SMILES.

One assay deals with PTGER2 (EP2) (Homo sapiens (Human), UniProt P43116). The assay can be described thus: hEP2 b-arrestin assay (PathHunter HEK 293 PTGER2 b-arrestin cells). The format is cell-based. The following applies: antagonistic activity on hEP2; mean where measured multiple times. An outline of the steps:
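HEK293 cells expressing ProLink-tagged EP2 and EA-fused β-arrestin 2 (enzyme fragment complementation) were seeded 24 h, pre-incubated with compound 15 min at 37 °C, then stimulated with 5 μM PGE2 (final) for 120 min.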

The next assay deals with PTRGER4 (EP4) (Homo sapiens (Human), UniProt P35408). Put plainly: hEP4 b-arrestin assay (PathHunter HEK 293 PTGER4 b-arrestin cells). The format is cell-based. The conditions noted are these: antagonistic activity on hEP4; mean where measured multiple times. An outline of the steps:
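Stably transfected HEK293 cells carrying EP4–ProLink and β-arrestin 2–EA (β-gal fragment complementation), pre-incubated with compound 15 min at 37 °C, then stimulated with PGE2 (20 nM final) for 120 min at 37 °C. Chemiluminescence read after 1 h detection reagent at room temperature; activity per concentration expressed as percent of DMSO control.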

Chain of PTGER2 (EP2) (P43116 whole entry, the tested form may be a part): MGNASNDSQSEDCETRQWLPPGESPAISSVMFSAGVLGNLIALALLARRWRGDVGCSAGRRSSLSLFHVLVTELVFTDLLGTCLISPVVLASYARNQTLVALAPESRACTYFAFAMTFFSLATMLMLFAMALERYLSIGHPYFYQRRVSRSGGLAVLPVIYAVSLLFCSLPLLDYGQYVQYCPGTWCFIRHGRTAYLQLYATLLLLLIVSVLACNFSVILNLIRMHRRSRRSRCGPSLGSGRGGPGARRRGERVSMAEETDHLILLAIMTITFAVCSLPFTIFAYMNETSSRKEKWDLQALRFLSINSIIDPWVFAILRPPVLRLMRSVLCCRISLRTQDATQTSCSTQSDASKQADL
Chain of PTRGER4 (EP4) (P35408 whole entry, looked up, the tested form may be a part): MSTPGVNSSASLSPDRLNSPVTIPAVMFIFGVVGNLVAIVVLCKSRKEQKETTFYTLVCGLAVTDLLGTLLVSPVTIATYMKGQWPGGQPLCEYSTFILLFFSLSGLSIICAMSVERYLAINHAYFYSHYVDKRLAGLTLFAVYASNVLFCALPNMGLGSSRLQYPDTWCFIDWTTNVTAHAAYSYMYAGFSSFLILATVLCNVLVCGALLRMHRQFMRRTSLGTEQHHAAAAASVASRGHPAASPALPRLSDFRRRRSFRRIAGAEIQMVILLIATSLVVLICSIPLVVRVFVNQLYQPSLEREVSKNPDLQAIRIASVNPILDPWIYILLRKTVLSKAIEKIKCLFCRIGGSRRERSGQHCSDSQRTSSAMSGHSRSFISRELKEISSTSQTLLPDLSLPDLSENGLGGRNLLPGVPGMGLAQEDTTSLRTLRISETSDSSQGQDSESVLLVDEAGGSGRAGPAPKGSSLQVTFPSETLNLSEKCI

The term IC50 denotes the point on the concentration scale where inhibition reaches its midpoint. As to `COc1ccc(F)c2c1cc(C)n2CCNc1cc(-c2ccc(-n3cccn3)cc2)ncn1` [compound 190], the IC50 was determined as 53 nM at PTGER2 (EP2) and 193 nM against PTRGER4 (EP4).

Turning to `COc1ccc(F)c2c1cc(C)n2CCNc1cc(-c2ccc(-c3c[nH]cn3)cc2)ncn1` [compound 191, [2-(7-Fluoro-4-methoxy-2-methyl-indol-1-yl)-ethyl]-{6-[4-(1H-imidazol-4-yl)-phenyl]-pyrimidin-4-yl}-amine], the IC50 on PTGER2 (EP2) is 13 nM; against PTRGER4 (EP4), 38 nM.

As to `COc1ccc(F)c2c1cc(C)n2CCNc1cc(-c2ccc(-c3ncc[nH]3)cc2)ncn1` [compound 192, [2-(7-Fluoro-4-methoxy-2-methyl-indol-1-yl)-ethyl]-{6-[4-(1H-imidazol-2-yl)-phenyl]-pyrimidin-4-yl}-amine], the figures for the IC50 on PTGER2 (EP2) and against PTRGER4 (EP4) were 23 nM and 287 nM, respectively.

With `COc1ccc(F)c2c1cc(C)n2CCNc1cc(-c2ccc(-c3ccn[nH]3)cc2)ncn1` [compound 193, [2-(7-Fluoro-4-methoxy-2-methyl-indol-1-yl)-ethyl]-{6-[4-(2H-pyrazol-3-yl)-phenyl]-pyrimidin-4-yl}-amine], the results for the IC50 at PTGER2 (EP2) and against PTRGER4 (EP4) were 4 nM and 39 nM, respectively.

For the compound `COc1cccc2c1cc(C)n2CCNc1cc(-c2ccc(-c3noc(=O)[nH]3)cc2)ncn1` [compound 194, 3-(4-{6-[2-(4-Methoxy-2-methyl-indol-1-yl)-ethylamino]-pyrimidin-4-yl}-phenyl)-4H-[1,2,4]oxadiazol-5-one], the results for the IC50 against PTGER2 (EP2) and on PTRGER4 (EP4) were 10 nM and 172 nM, respectively.

In the case of `Cc1nc(-c2ccc(-c3cc(NCCn4c(C)cc5c(C)ccc(F)c54)ncn3)cc2)cs1` [compound 195], the IC50 came to 260 nM on PTGER2 (EP2) and 534 nM against PTRGER4 (EP4).

With `CCN1Cc2cc(-c3cc(NCCn4c(C)cc5c(OC)cccc54)ncn3)ccc2C1=O` [compound 197, 2-Ethyl-5-{6-[2-(4-methoxy-2-methyl-indol-1-yl)-ethylamino]-pyrimidin-4-yl}-2,3-dihydro-isoindol-1-one], the IC50 against PTGER2 (EP2) was found to be 32 nM; against PTRGER4 (EP4), 751 nM.

`Cc1cc2c(Cl)ccc(Cl)c2n1CCNc1cc(-c2ccc3[nH]c(C(=O)O)cc3c2)ncn1` [compound 198]: the IC50 at PTGER2 (EP2) is 96 nM; against PTRGER4 (EP4) it was 299 nM.

Turning to `COc1cc(F)c(F)c2c1cc(C)n2CCNc1cc(-c2ccc3c(c2)CC(=O)N3)ncn1` [compound 199], the IC50 is 102 nM on PTGER2 (EP2) and 166 nM against PTRGER4 (EP4).

As to `Cc1cc(F)cc2c1cc(C)n2CCNc1cc(-c2ccc(-c3cc(O)no3)cc2)ncn1` [compound 200, 5-(4-{6-[2-(6-Fluoro-2,4-dimethyl-indol-1-yl)-ethylamino]-pyrimidin-4-yl}-phenyl)-isoxazol-3-ol], the IC50 on PTGER2 (EP2) was 37 nM; on PTRGER4 (EP4), 111 nM.

Consider `Cc1ccc(Cl)c2c1cc(C)n2CCNc1cc(-c2ccc3[nH]c(C(=O)O)cc3c2)ncn1` [compound 201], for which the values for the IC50 at PTGER2 (EP2) and at PTRGER4 (EP4) were 232 nM and 389 nM, respectively.

Turning to `COc1ccc(F)c2c1cc(C)n2CCNc1cc(-c2ccc(-c3cnco3)cc2)ncn1` [compound 202, [2-(7-Fluoro-4-methoxy-2-methyl-indol-1-yl)-ethyl]-[6-(4-oxazol-5-yl-phenyl)-pyrimidin-4-yl]-amine], the IC50 was 16 nM on PTGER2 (EP2) and 105 nM against PTRGER4 (EP4).

Consider `COc1ccc(F)c2c1cc(C)n2CCNc1cc(-c2ccc3c(c2)CN(C)C3=O)ncn1` [compound 204, 5-{6-[2-(7-Fluoro-4-methoxy-2-methyl-indol-1-yl)-ethylamino]-pyrimidin-4-yl}-2-methyl-2,3-dihydro-isoindol-1-one], for which the IC50 against PTGER2 (EP2) stood at 31 nM; against PTRGER4 (EP4) it was 182 nM.

As for `COc1cc(F)cc2c1cc(C)n2CCNc1cc(-c2ccc(-c3ccns3)cc2)ncn1` [compound 205, [2-(6-Fluoro-4-methoxy-2-methyl-indol-1-yl)-ethyl]-[6-(4-isothiazol-5-yl-phenyl)-pyrimidin-4-yl]-amine], the half-inhibitory concentration (IC50) at PTGER2 (EP2) turned out to be 44 nM; against PTRGER4 (EP4), 334 nM.

With `CCN1Cc2cc(-c3cc(NCCn4c(C)cc5c(C)ccc(F)c54)ncn3)ccc2C1=O` [compound 206], the IC50 against PTGER2 (EP2) was found to be 88 nM; at PTRGER4 (EP4), 740 nM.

On to `COc1ccc(F)c2c1cc(C)n2CCNc1cc(-c2ccc(-c3nnc[nH]3)cc2)ncn1` [compound 208, [2-(7-Fluoro-4-methoxy-2-methyl-indol-1-yl)-ethyl]-{6-[4-(4H-[1,2,4]triazol-3-yl)-phenyl]-pyrimidin-4-yl}-amine], for which the IC50 against PTGER2 (EP2) stood at 11 nM; against PTRGER4 (EP4) it was 102 nM.

In the case of `CNc1cc(-c2cc(NCCn3c(C)cc4c(C)cc(F)cc43)ncn2)ccc1C(=O)O` [compound 209], the results for the IC50 at PTGER2 (EP2) and on PTRGER4 (EP4) were 3 nM and 123 nM, respectively.

Consider `CCOc1cc(-c2cc(NCCn3c(C)cc4c(C)cc(F)c(Cl)c43)ncn2)ccc1C(=O)O` [compound 210], for which the figures for the IC50 on PTGER2 (EP2) and against PTRGER4 (EP4) were 472 nM and 991 nM, respectively.

Regarding `CNc1cc(-c2cc(NCCn3c(C)cc4c(F)ccc(C)c43)ncn2)ccc1C(=O)O` [compound 211], the figures for the IC50 on PTGER2 (EP2) and on PTRGER4 (EP4) were 2 nM and 394 nM, respectively.

Consider `CCNc1cc(-c2cc(NCCn3c(C)cc4c(Cl)cccc43)ncn2)ccc1C(=O)O` [compound 212], for which the IC50 at PTGER2 (EP2) was determined as 1 nM; on PTRGER4 (EP4) it was 173 nM.

Turning to `CNc1cc(-c2cc(NCCn3c(C)cc4c(OC)cccc43)ncn2)ccc1C(=O)O` [compound 213], the results for the IC50 against PTGER2 (EP2) and on PTRGER4 (EP4) were 3 nM and 204 nM, respectively.

`COc1c(-c2cc(NCCn3c(C)cc4c(OC)ccc(F)c43)ncn2)csc1C(=O)O` [compound 215]: the IC50 at PTGER2 (EP2) was determined as 139 nM; on PTRGER4 (EP4) it was 972 nM.

With `CCOc1cc(-c2cc(NCCn3c(C)cc4c(OC)cccc43)ncn2)sc1C(=O)O` [compound 216], the values for the IC50 at PTGER2 (EP2) and against PTRGER4 (EP4) were 2 nM and 22 nM, respectively.

On to `CSc1cc(-c2cc(NCCn3c(C)cc4c(C)ccc(Cl)c43)ncn2)ccc1C(=O)O` [compound 217], for which the IC50 amounted to 25 nM against PTGER2 (EP2) and 381 nM against PTRGER4 (EP4).

With `Cc1cc(-c2cc(NCCn3c(C)cc4c(C)ccc(F)c43)ncn2)cc(F)c1C(=O)O` [compound 218], the IC50 at PTGER2 (EP2) worked out at 18 nM; on PTRGER4 (EP4) it was 519 nM.

For the compound `CCc1cc(-c2cc(NCCn3c(C)cc4c(C)cc(F)cc43)ncn2)ccc1C(=O)O` [compound 219], the IC50 is 41 nM against PTGER2 (EP2) and 454 nM at PTRGER4 (EP4).

For `CCc1cc(-c2cc(NCCn3c(C)cc4c(C)ccc(F)c43)ncn2)ccc1C(=O)O` [compound 220], the values for the concentration for half-maximal inhibition (IC50) at PTGER2 (EP2) and on PTRGER4 (EP4) were 18 nM and 216 nM, respectively.

As to `CSc1cc(-c2cc(NCCn3c(C)cc4c(Cl)ccc(Cl)c43)ncn2)ccc1C(=O)O` [compound 221], the results for the IC50 against PTGER2 (EP2) and at PTRGER4 (EP4) were 9 nM and 902 nM, respectively.

Regarding `Cc1ccc(F)c2c1cc(C)n2CCNc1cc(-c2cc(Cl)c(C(=O)O)c(Cl)c2)ncn1` [compound 222], the IC50 on PTGER2 (EP2) was 42 nM; on PTRGER4 (EP4), 232 nM.

As to `CCc1cc(-c2cc(NCCn3c(C)cc4c(OC)cccc43)ncn2)ccc1C(=O)O` [compound 223], the half-maximal inhibitory concentration (IC50) on PTGER2 (EP2) was 8 nM; against PTRGER4 (EP4), 702 nM.

Regarding `CCOc1cc(-c2cc(NCCn3c(C)cc4c(C)cc(Cl)cc43)ncn2)sc1C(=O)O` [compound 224], the half-inhibitory concentration (IC50) on PTGER2 (EP2) was 4 nM; at PTRGER4 (EP4), 20 nM.

On to `CCc1cc(-c2cc(NCCn3c(C)cc4c(OC)ccc(Cl)c43)ncn2)sc1C(=O)O` [compound 225], for which the IC50 on PTGER2 (EP2) was found to be 25 nM; against PTRGER4 (EP4), 124 nM.

Regarding `CCOc1cc(-c2cc(NCCn3c(C)cc4c(C)ccc(F)c43)ncn2)sc1C(=O)O` [compound 227], the half-maximal inhibitory concentration (IC50) is 2 nM on PTGER2 (EP2) and 22 nM against PTRGER4 (EP4).

`CCOc1cc(-c2cc(NCCn3c(C)cc4cc(C)cc(F)c43)ncn2)sc1C(=O)O` [compound 228]: the values for the IC50 against PTGER2 (EP2) and at PTRGER4 (EP4) were 4 nM and 35 nM, respectively.

Consider `CCOc1cc(-c2cc(NCCn3c(C)cc4c(C)cc(F)cc43)ncn2)sc1C(=O)O` [compound 229], for which the results for the IC50 against PTGER2 (EP2) and on PTRGER4 (EP4) were 2 nM and 26 nM, respectively.

With `CCc1cc(-c2cc(NCCn3c(C)cc4c(OC)ccc(F)c43)ncn2)sc1C(=O)O` [compound 230], the IC50 against PTGER2 (EP2) turned out to be 5 nM; at PTRGER4 (EP4), 13 nM.

In the case of `CCc1cc(-c2cc(NCCn3c(C)cc4cc(OC)cc(F)c43)ncn2)sc1C(=O)O` [compound 231], the IC50 was 185 nM on PTGER2 (EP2) and 133 nM on PTRGER4 (EP4).

`COc1cc(-c2cc(NCCn3c(C)cc4c(C)cc(F)cc43)ncn2)ccc1C(=O)O` [compound 232]: the IC50 amounted to 21 nM at PTGER2 (EP2) and 732 nM against PTRGER4 (EP4).

For the compound `COc1ccc(F)c2c1cc(C)n2CCNc1cc(-c2ccc(C(=O)O)c(C)c2)ncn1` [compound 233], the IC50 at PTGER2 (EP2) came to 52 nM; against PTRGER4 (EP4), 317 nM.

As for `CCOc1cc(-c2cc(NCCn3c(C)cc4c(Cl)cccc43)ncn2)ccc1C(=O)O` [compound 234], the half-maximal inhibitory concentration (IC50) came to 3 nM on PTGER2 (EP2) and 249 nM at PTRGER4 (EP4).

In the case of `CCOc1cc(-c2cc(NCCn3c(C)cc4c(F)c(F)ccc43)ncn2)sc1C(=O)O` [compound 235], the IC50 turned out to be 2 nM against PTGER2 (EP2) and 60 nM against PTRGER4 (EP4).

On to `CCOc1cc(-c2cc(NCCn3c(C)cc4ccc(Cl)c(Cl)c43)ncn2)sc1C(=O)O` [compound 236], for which the IC50 against PTGER2 (EP2) stood at 9 nM; against PTRGER4 (EP4), 413 nM.

`CCOc1cc(-c2cc(NCCn3c(C)cc4cc(Cl)cc(F)c43)ncn2)sc1C(=O)O` [compound 237]: the IC50 against PTGER2 (EP2) turned out to be 13 nM; against PTRGER4 (EP4) it was 68 nM.

`CCOc1cc(-c2cc(NCCn3c(C)cc4c(Cl)cc(Cl)cc43)ncn2)sc1C(=O)O` [compound 238]: the IC50 against PTGER2 (EP2) was found to be 5 nM; at PTRGER4 (EP4), 40 nM.

With `CCOc1cc(-c2cc(NCCn3c(C)cc4c(Cl)cc(F)cc43)ncn2)sc1C(=O)O` [compound 239], the results for the IC50 against PTGER2 (EP2) and on PTRGER4 (EP4) were 1 nM and 19 nM, respectively.
